Results published in patent publication US9593305B2, “Differentiation of pluripotent stem cells” (Janssen Biotech, Inc., priority 2008, dated 2017).

System: H1 human embryonic stem cells
Experiment: Step-wise differentiation, high content analysis of SOX17, cell number, insulin, glucagon (Example 16)
Type: cell-based
Experimental: The assay was initiated by aspirating the culture medium from each well and adding back an aliquot (0.5 ml) of test medium. Test conditions for the first step of differentiation were conducted over a three-day period, feeding daily by aspirating and replacing the medium from each well with fresh test medium. On the first day of assay, 100 ng/ml activin A (PeproTech; Cat #120-14) or 100 ng/ml GDF-8 (R&D Systems, Cat #788-G8) was added to respective assay wells where each growth factor was diluted into RPMI-1640 medium (Invitrogen; Cat #: 22400) with 2% Albumin Bovine Fraction V, Fatty Acid Free (FAF BSA) (Proliant Inc. Cat #: SKU 68700), and 20 ng/ml Wnt3a (R&D Systems; Cat #1324-WN/CF). On the second day of assay, 100 ng/ml activin A or 100 ng/ml GDF-8 was diluted into RPMI-1640 medium supplemented with 2% FAF BSA without Wnt3a. In some test samples using GDF-8, Wnt3a was replaced with a small molecule compound, added only on the first day of definitive endoderm differentiation. These small molecules included Compound 19 (2.5 μM in assay), Compound 202 (2.5 μM in assay), Compound 40 (2.5 μM in assay), or a commercially available GSK3 inhibitor BIO (0.5 μM in assay) (EMD Chemicals, Inc.; Cat #361550). At the conclusion of the first step of differentiation, cells from some wells were harvested for flow cytometry analysis to evaluate levels of CXCR4, a marker of definitive endoderm formation. Additional wells were harvested for RT-PCR analysis to measure other markers of differentiation.
Step 5 of the differentiation protocol was carried out over seven days in DMEM-high glucose with 0.1% Albumax, 0.5× Insulin-Transferrin-Selenium, and 1 μM Alk 5 inhibitor. […]
Imaging was performed using an IN Cell Analyzer 1000 (GE Healthcare) utilizing the 51008bs dichroic for cells stained with Hoechst 33342 and Alexa Fluor 488. […] Segmentation for the nuclei was determined based on gray-scale levels (baseline range 100-300) and nuclear size. Averages and standard deviations were calculated for each replicate data set. […]

In the case of C=CCN1CC(=O)NCCCc2cncc(c2)-c2ncnc(n2)Nc2cccc(c2)C1 [Compound 40, 14-Prop-2-en-1-yl-3,5,7,14,17,23,27-heptaazatetracyclo[19.3.1.1˜2.6˜0.1˜8,12˜]heptacosa-1(25), 2(27), 3,5,8(26), 9,11,21,23-nonaen-16-one], the “cell numbers and SOX17 expression after step 1” value (100 ng/ml GDF-8 with 2.5 μM compound on first day) is reported as “cell numbers in culture and SOX17 expression equivalent to treatment with activin A and Wnt3a”.
With CN1CCC(=O)NCCCc2cncc(c2)-c2ncnc(n2)Nc2cccc(c2)C1 [Compound 19, 14-Methyl-3,5,7,14,18,24,28-heptaazatetracyclo[20.3.1.1˜2,6˜0.1˜8,12˜]octacosa-1(26), 2(28), 3,5,8(27), 9,11,22,24-nonaen-17-one] the “relative cell numbers recovered through differentiation step 5” value (GDF-8 with compound in step 1, relative to activin A and Wnt3a) was “decrease in cell number”.
